The values that follow are results of earlier work, collected in paper PMC3652662 (Journal of molecular recognition : JMR, 2009).

In the data set the test system is HIV-1YU2 gp120. To be noted: SPR direct binding, HIV-1 Env YU2 (clade B) gp120; ref Gopi et al. (2008).

Consider RINNIPWSEAMM [Peptide 12p1], for which the ka is 13600 M⁻¹ s⁻¹.
